Data as given in patent US5846545A, “Targeted delivery of cyclopropylbenzindole-containing cytotoxic drugs” (Immunogen, Inc., priority 1995, dated 1998).

Tests used:
[1] = tested on: P388 leukemia; conditions: cited from earlier work
[2] = tested on: human small cell lung cancer cell line SW2; assay: In vitro cytotoxicity to SW2 cells, 24 h exposure, growth back-extrapolation assay; format: cell-based; conditions: 24 h exposure to the drug, read-out: IC50, free drug, SW2 cells
Experimental: Disulfide-containing and mercapto-containing analogues and derivatives of CC-1065 of the invention can be evaluated for their ability to suppress proliferation of various unwanted cell lines in vitro. For example, cell lines such as the human epidermoid carcinoma line KB, the human breast tumor line SKBR3, and the Burkitt's lymphoma line Namalwa can easily be used for the assessment of cytotoxicity of these compounds. Cells to be evaluated can be exposed to the compounds for 24 hours and the surviving fractions of cells measured in direct assays by known methods. IC50 values can then be calculated from the results of the assays.
Cytotoxicity of the analogues and derivatives of CC-1065 and their conjugates with cell binding agents to non-adherent cell lines such as Namalwa and SW2 can be measured by back-extrapolation of cell proliferation curves as described in Goldmacher et al, 135 J. Immunol. […] Cytotoxicity of these compounds to adherent cell lines such as A-375 and SCaBER can be determined by clonogenic assays as described in Goldmacher et al, 102 J. Cell Biol. 1312-1319 (1986). […]
In vitro cytotoxicity of N901-SS-Drug 7. The in vitro cytotoxicity of a disulfide-linked conjugate of the mono-indolyl CPI derivative 7 with the antibody N901, containing on the average 3.3 drug molecules per antibody molecule, was measured on antigen positive SW2 cells and antigen negative Namalwa cells. […]

[3] = single i.v. dose of 12.5 μg/kg; cited from earlier work
[4] = in vitro; cited from earlier work

Structure (SMILES)	treated mice surviving beyond 30 days ([1]; 0.05 mg/kg i.p. on days 1, 5 and 9)	increase in life span over untreated controls ([1]; optimal dose 0.05 mg/kg i.p. on days 1, 5 and 9) [%]	IC50 [2] [pM]	delayed hepatotoxicity leading to death, time of death [3] [days]	fold more cytotoxic than methotrexate, daunorubicin and vincristine [4] [fold]
Cc1c[nH]c2c1[C@@]13C[C@@H]1CN(C(=O)c1cc4cc(NC(=O)c5cc6ccccc6o5)ccc4[nH]1)C3=CC2=O [U-73975]	1 out of 6	170	–	–	–
COc1c(O)c2c(c3cc(C(=O)N4CCc5c4c(O)c(OC)c4[nH]c(C(=O)N6CC7CC78C6=CC(=O)c6[nH]cc(C)c68)cc54)[nH]c13)CCN2C(N)=O (centres unmarked) [CC-1065]	–	–	200	50	100 to 1000
